This assay deals with T1, Drak2 (Homo sapiens, UniProt O94768).
T1 sequence (O94768 1-372): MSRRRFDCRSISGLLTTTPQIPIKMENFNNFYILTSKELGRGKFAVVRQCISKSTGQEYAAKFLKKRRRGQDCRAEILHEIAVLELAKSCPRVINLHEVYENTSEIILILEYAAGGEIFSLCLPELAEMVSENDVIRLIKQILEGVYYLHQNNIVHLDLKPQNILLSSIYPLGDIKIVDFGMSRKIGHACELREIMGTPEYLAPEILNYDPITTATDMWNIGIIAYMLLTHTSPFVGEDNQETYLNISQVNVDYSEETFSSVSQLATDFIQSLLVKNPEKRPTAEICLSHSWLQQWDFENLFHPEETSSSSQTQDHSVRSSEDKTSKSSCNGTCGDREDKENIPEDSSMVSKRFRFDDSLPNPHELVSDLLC
Briefly: Drak2 activity test, ADP-Glo kinase assay (Promega). The following applies: inhibition of Drak2 kinase activity, 2 h room temperature, activity range classes, read-out: IC50_Drak2. The assay is classed as biochemical. Background: ADP-Glo turns the ADP formed in a reaction into a luminescent signal.

pIC50: −log10 of the molar value.

Turning to `Cn1ncc2ccc(-c3cncc(-c4cc(NC(=O)CC5CCC5)cs4)n3)cc21` [Example A49, 2-cyclobutyl-N-(5-(6-(1-methyl-1H-indazol-6-yl)pyrazin-2-yl)thiophen-3-yl)acetamide], the pIC50 is 7.00 to 7.96.

As to `CCCCC(=O)Nc1csc(-c2cncc(-c3cccc(O)c3)n2)c1` [Example 197, N-(5-(6-(3-hydroxyphenyl)pyrazin-2-yl)thiophen-3-yl) pentanamide], the pIC50 is 7.00 to 7.96.

Consider `CCCCC(=O)Nc1csc(-c2cncc(-c3ccc(C(=O)N(C)C4CCN(C(C)C)CC4)c(OC)c3)n2)c1` [Example B68, N-(1-isopropylpiperidin-4-yl)-2-methoxy-N-methyl-4-(6-(4-pentanamidothiophen-2-yl)pyrazin-2-yl)benzamide], for which the pIC50 is above 8.00.

Consider `COc1cc(-c2cncc(-c3cc(NC(=O)CC4CCC4)cs3)n2)ccc1OCCN1CCCC1` [Example 189, 2-Cyclobutyl-N-(5-(6-(3-methoxy-4-(2-(pyrrolidin-1-yl)ethoxy)phenyl)pyrazin-2-yl)thiophen-3-yl) acetamide], for which the pIC50 was above 8.00.

With `COc1cc(-c2cncc(-c3cc(NC(=O)CC4CC4)cs3)n2)ccc1C(=O)Nc1nnnn1C` [Example B25, 2-methoxy-4-(6-(4-(2-cyclopropylacetamido)thiophen-2-yl)pyrazin-2-yl)-N-(1-methyl-1H-tetrazol-5-yl)benzamide], the pIC50 is 7.00 to 7.96.

For the compound `CC(C)n1ccc2c(-c3cncc(-c4cc(NC(=O)CC5CCC5)cs4)n3)ccnc21` [Example 210, 2-Cyclobutyl-N-(5-{6-[1-(propyl-2-yl)pyrrolo [2,3-b]pyridin-4-yl]pyrazin-2-yl}thiophen-3-yl) acetamide], the pIC50 is 6.00 to 7.00.

Regarding `CCCCC(=O)Nc1csc(-c2cncc(-c3ccc(CCO)s3)n2)c1` [Example 218, N-(5-{6-[5-(2-hydroxyethyl)thiophen-2-yl]pyrazin 2-yl}thiophen-3-yl) pentanamide], the pIC50 is 7.00 to 7.96.

Turning to `COc1ccc(-c2cncc(-c3cc(NC(=O)C4CCCC4)cs3)n2)cc1OC` [Example A8, N-(5-(6-(3,4-dimethoxyphenyl)pyrazin-2-yl)thiophen-3-yl)cyclopentanecarboxamide], the pIC50 is 6.00 to 7.00.

As for `COc1cc(-c2cncc(-c3cc(NC(=O)CC4CCCC4)cs3)n2)ccc1C(=O)Nc1nnco1` [Example B64, 4-(6-(4-(2-cyclopentylacetamido)thiophen-2-yl)pyrazin-2-yl)-2-methoxy-N-(1,3,4-oxadiazol-2-yl)benzamide], the pIC50 is 7.00 to 7.96.

Consider `CCCCC(=O)Nc1csc(-c2cncc(-c3ccc(C(=O)Nc4cn(C)c(C(=O)OC)n4)c(OC)c3)n2)c1` [Example B22, methyl 4-(2-methoxy-4-(6-(4-pentanamidothiophen-2-yl)pyrazin-2-yl)benzamido)-1-methyl-1H-imidazole-2-carboxylate], for which the pIC50 is 6.00 to 7.00.

In the case of `CCCCC(=O)Nc1csc(-c2cncc(-c3cc(F)c(O)c(OC)c3)n2)c1` [Example A38, N-(5-(6-(3-fluoro-4-hydroxy-5-methoxyphenyl)pyrazin-2-yl)thiophen-3-yl)pentanamide], the pIC50 was 5.00 to 6.00.

Turning to `COc1cc(-c2cncc(-c3cc(NC(=O)CC4CCC4)cs3)n2)ccc1C(=O)N1CCN(C)CC1` [Example B39, 2-cyclobutyl-N-(5-(6-(3-methoxy-4-(4-methylpiperazine-1-carbonyl)phenyl)pyrazin-2-yl)thiophen-3-yl)acetamide], the pIC50 was 7.00 to 7.96.

For `COc1cc(-c2cncc(-c3cc(NC(=O)CC4CCC4)cs3)n2)ccc1OCCc1ccccn1` [Example 172, 2-cyclobutyl-N-{5-[6-(3-methoxy-4-{[2-(pyridin-2-yl)ethyl]oxy}phenyl)pyrazin-2-yl]thiophen-3-yl} acetamide], the pIC50 is 6.00 to 7.00.

`CC(C)n1ncc2ccc(-c3cncc(-c4cc(NC(=O)CC5CCC5)cs4)n3)cc21` [Example 213, 2-Cyclobutyl-N-(5-{6-[1-(propyl-2-yl)indazol-6-yl]pyrazin-2-yl}thiophen-3-yl) acetamide]: the pIC50 is 6.00 to 7.00.

As to `COc1cc(C(N)=O)c(-c2cncc(-c3cc(NC(=O)C4CCC4)cs3)n2)cc1OC` [Example A25, 2-(6-(4-(cyclobutanecarboxamido)thiophen-2-yl)pyrazin-2-yl)-4,5-dimethoxybenzamide], the pIC50 is below 5.00.

Consider `CCCCC(=O)Nc1csc(-c2cccc(-c3ccc(C(=O)N(C4CC4)C4CCN(C)CC4)c(OC)c3)n2)c1` [Example B75, N-cyclopropyl-2-methoxy-N-(1-methylpiperidin-4-yl)-4-(6-(4-pentanamidothiophen-2-yl)pyridin-2-yl)benzamide], for which the pIC50 was below 5.00.

As for `CCCCC(=O)Nc1csc(-c2ccnc(-c3ccc(C(=O)N(C)C4CCN(C)CC4)c(OC)c3)n2)c1` [Example D5, 2-methoxy-N-methyl-N-(1-methylpiperidin-4-yl)-4-(4-(4-pentanamidothiophen-2-yl)pyrimidin-2-yl)benzamide], the pIC50 is 5.00 to 6.00.

As for `CCCCC(=O)Nc1csc(-c2cncc(-c3ccc(OCCN4CC[S+]([O-])CC4)c(OC)c3)n2)c1` [Example 194, N-{5-[6-(3-methoxy-4-{[2-(1-oxo-1λ4-thiomorpholin-4-yl)ethyl]oxy}phenyl)pyrazin-2-yl]thiophen-3-yl} pentanamide], the pIC50 was 7.00 to 7.96.

As for `CCCCC(=O)Nc1csc(-c2cncc(-c3ccc4c(c3)OCCN4C(=O)C3CCN(C)CC3)n2)c1` [Example 214, N-[5-(6-{4-[(1-methylhexahydropyridin-4-yl)carbonyl]-3,4-dihydro-2H-benzo [2,1-b] [1,4]oxazinan-7-yl}pyrazine-2-y)thiophene-3-yl] pentanamide], the pIC50 is 7.00 to 7.96.

Take `COc1cc(-c2cncc(-c3cc(NC(=O)CC4CCC4)cs3)n2)ccc1OCCN1CCn2ncnc2C1` [Example 175, 2-cyclobutyl-N-{5-[6-(3-methoxy-4-{[2-(5,6,7,8-tetrahydro [1,2,4]triazolo [1,5-a]pyrazin-7-yl)ethyl]oxy}phenyl)pyrazin-2-yl]thiophen-3-yl} acetamide]: the pIC50 is 7.00 to 7.96.

In the case of `CCCCCCC(=O)Nc1csc(-c2cncc(-c3ccc(OC)c(OC)c3)n2)c1` [Example A30, N-(5-(6-(3,4-dimethoxyphenyl)pyrazin-2-yl)thiophen-3-yl)heptanamide], the pIC50 is below 5.00.

As to `CCCCC(=O)Nc1csc(-c2cncc(-c3cccc(OC)c3OC)n2)c1` [Example A12, N-(5-(6-(2,3-dimethoxyphenyl)pyrazin-2-yl)thiophen-3-yl)pentanamide], the pIC50 is 5.00 to 6.00.

On to `COc1cc(-c2cncc(-c3cc(NC(=O)CC4CCC4)cs3)n2)ccc1C(=O)Nc1nnco1` [Example B62, 4-(6-(4-(2-cyclobutylacetamido)thiophen-2-yl)pyrazin-2-yl)-2-methoxy-N-(1,3,4-oxadiazol-2-yl)benzamide], for which the pIC50 is 7.00 to 7.96.

For the compound `COc1cc(-c2cncc(-c3cc(NC(=O)CC4CCC4)cs3)n2)ccc1OCCc1cnccn1` [Example 174, 2-cyclobutyl-N-{5-[6-(3-methoxy-4-{[2-(pyrazin-2-yl)ethyl]oxy}phenyl)pyrazin-2-yl]thiophen-3-yl} acetamide], the pIC50 is 7.00 to 7.96.

`COc1cc(-c2cncc(-c3cc(NC(=O)CC4CCC4)cs3)n2)ccc1OCC1CCN(C)CC1` [Example 184, 2-Cyclobutyl-N-(5-(6-(3-methoxy-4-((1-methylpiperidin-4-yl)methoxy)phenyl)pyrazin-2-yl)thiophen-3-yl) acetamide]: the pIC50 is 7.00 to 7.96.

As to `CCCCC(=O)Nc1csc(-c2cncc(-c3ccc(C(=O)Nc4nnnn4C)c(OC)c3)n2)c1` [Example B15, 2-methoxy-4-(6-(4-pentanamidothiophen-2-yl)pyrazin-2-yl)-N-(1-methyl-1H-tetrazol-5-yl)-benzamide], the pIC50 was 7.00 to 7.96.

On to `Cn1ccc2c(-c3cncc(-c4cc(NC(=O)CC5CCC5)cs4)n3)ccnc21` [Example 224], for which the pIC50 is 6.00 to 7.00.

Regarding `CCCCC(=O)Nc1cc(-c2cncc(-c3ccc(S(C)(=O)=O)c(OC)c3)n2)sc1C` [Example A45, N-(5-(6-(3-methoxy-4-(methylsulfonyl)phenyl)pyrazin-2-yl)-2-methylthiophen-3-yl)pentanamide], the pIC50 was 5.00 to 6.00.

Turning to `COc1cc(-c2cncc(-c3cc(NC(=O)CC4CC4)cs3)n2)ccc1C(=O)Nc1nnn[nH]1` [Example B12, 2-methoxy-4-(6-(4-(2-cyclopropylacetamido)thiophen-2-yl)pyrazin-2-yl)-N-(1H-tetrazol-5-yl)benzamide], the pIC50 was 6.00 to 7.00.

On to `CCCCC(=O)Nc1csc(-c2cncc(-c3ccc(OC)c(Cl)c3)n2)c1` [Example A19, N-(5-(6-(3-chloro-4-methoxyphenyl)pyrazin-2-yl)thiophen-3-yl)pentanamide], for which the pIC50 was 6.00 to 7.00.

On to `COc1ccc(-c2cncc(-c3cc(NC(=O)c4ccccc4)cs3)n2)cc1OC` [Example A10, N-(5-(6-(3,4-dimethoxyphenyl)pyrazin-2-yl)thiophen-3-yl)benzamide], for which the pIC50 was 5.00 to 6.00.

Turning to `COc1ccc(-c2cncc(NC3CCC(N)CC3)n2)cc1OC` (stereo not shown) [Example D1, N^1-(6-(3,4-dimethoxyphenyl)pyrazin-2-yl)cyclohexane-1,4-diamine], the pIC50 was below 5.00.

Turning to `COc1ccc(-c2cncc(-c3cc(NC(=O)C4CCC4)cs3)c2C(N)=O)cc1OC` [Example C1, 3-(4-(cyclobutanecarboxamido)thiophen-2-yl)-5-(3,4-dimethoxyphenyl)isonicotinamide], the pIC50 is below 5.00.

As to `CCCCC(=O)Nc1csc(-c2cncc(-c3ccc(C(=O)Nc4cn(C)nc4OC)c(OC)c3)n2)c1` [Example B41, 2-methoxy-N-(3-methoxy-1-methyl-1H-pyrazol-4-yl)-4-(6-(4-pentanamidothiophen-2-yl)pyrazin-2-yl)benzamide], the pIC50 is 6.00 to 7.00.

Source of the values: patent US20240308992A1 (Biopolar Youtang(Guangdong) Pharmaceutical Co., Ltd., priority 2021, published 2024).
